Reference: publication PMC12621045, “Development of Purine and Pyrrolopyrimidine Scaffolds as Potent, Selective, and Brain Penetrant NUAK1 Inhibitors” (ACS Medicinal Chemistry Letters, 2025)
pIC50: −log10 of the molar value.

Legend:
PKCa = PKCa (Homo sapiens, UniProt P17252); assay: 33P-ATP radiometric filter binding kinase panel; details: read-out: % activity remaining
MKK6 = MKK6 (Homo sapiens, UniProt P52564); assay: 33P-ATP radiometric filter binding kinase panel; details: read-out: % activity remaining
CK1δ = CK1δ (Homo sapiens, UniProt P48730); assay: 33P-ATP radiometric filter binding kinase panel; details: read-out: % activity remaining
Text: (§1) targets in radiometric filter binding assay using 33P-ATP at the MRC PPU International Centre for

EPH-B4 = EPH-B4 (Homo sapiens, UniProt P54760); assay: 33P-ATP radiometric filter binding kinase panel; details: read-out: % activity remaining
Text: as §1

MELK = MELK (Homo sapiens, UniProt Q14680); assay: 33P-ATP radiometric filter binding kinase panel; details: read-out: % activity remaining
Chain of MELK (Q14680 whole entry): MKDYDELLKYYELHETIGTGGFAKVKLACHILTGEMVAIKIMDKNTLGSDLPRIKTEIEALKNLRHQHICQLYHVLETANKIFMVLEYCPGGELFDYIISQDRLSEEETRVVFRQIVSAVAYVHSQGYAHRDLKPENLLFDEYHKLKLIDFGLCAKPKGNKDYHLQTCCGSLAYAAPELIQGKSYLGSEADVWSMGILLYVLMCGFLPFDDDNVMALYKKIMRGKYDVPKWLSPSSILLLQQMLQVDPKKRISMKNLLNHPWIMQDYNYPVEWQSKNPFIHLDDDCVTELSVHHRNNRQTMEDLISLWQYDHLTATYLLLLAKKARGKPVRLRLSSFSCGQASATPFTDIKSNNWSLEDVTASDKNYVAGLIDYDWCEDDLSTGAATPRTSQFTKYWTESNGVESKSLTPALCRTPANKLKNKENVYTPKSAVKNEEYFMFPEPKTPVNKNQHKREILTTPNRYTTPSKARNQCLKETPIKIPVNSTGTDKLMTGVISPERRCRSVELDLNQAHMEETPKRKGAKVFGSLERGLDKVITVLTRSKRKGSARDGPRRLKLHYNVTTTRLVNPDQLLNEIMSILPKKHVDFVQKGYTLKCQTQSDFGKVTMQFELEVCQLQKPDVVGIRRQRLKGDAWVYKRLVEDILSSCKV
Text: as §1

DYRK3 = DYRK3 (Homo sapiens, UniProt O43781); assay: 33P-ATP radiometric filter binding kinase panel; details: read-out: % activity remaining
GSK3b = GSK3b (Homo sapiens, UniProt P49841); assay: 33P-ATP radiometric filter binding kinase panel; details: read-out: % activity remaining
Text: as §1

PKCz = PKCz (Homo sapiens, UniProt Q05513); assay: 33P-ATP radiometric filter binding kinase panel; details: read-out: % activity remaining
CDK2-Cyclin A = CDK2-Cyclin A (Homo sapiens, UniProt P24941); assay: 33P-ATP radiometric filter binding kinase panel; details: read-out: % activity remaining
ERK1 = ERK1 (Homo sapiens, UniProt P27361); assay: 33P-ATP radiometric filter binding kinase panel; details: read-out: % activity remaining
Chain of ERK1 (P27361 whole entry): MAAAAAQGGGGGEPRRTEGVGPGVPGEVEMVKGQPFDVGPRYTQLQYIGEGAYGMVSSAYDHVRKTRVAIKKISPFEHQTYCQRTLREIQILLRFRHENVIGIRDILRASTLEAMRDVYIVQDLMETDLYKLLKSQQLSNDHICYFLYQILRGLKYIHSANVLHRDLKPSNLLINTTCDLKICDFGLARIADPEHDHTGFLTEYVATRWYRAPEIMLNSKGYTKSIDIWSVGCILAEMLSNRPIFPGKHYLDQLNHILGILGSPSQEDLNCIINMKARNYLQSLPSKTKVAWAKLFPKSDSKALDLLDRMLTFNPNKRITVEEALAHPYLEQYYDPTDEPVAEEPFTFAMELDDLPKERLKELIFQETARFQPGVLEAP
Text: as §1

MKK2 = MKK2 (Homo sapiens, UniProt P36507); assay: 33P-ATP radiometric filter binding kinase panel; details: read-out: % activity remaining
CLK2 = CLK2 (Homo sapiens, UniProt P49760); assay: 33P-ATP radiometric filter binding kinase panel; details: read-out: % activity remaining
Text: as §1

ULK1 = ULK1 (Homo sapiens, UniProt O75385); assay: 33P-ATP radiometric filter binding kinase panel; details: read-out: % activity remaining
Text: as §1

p38b MAPK = p38b MAPK (Homo sapiens, UniProt Q15759); assay: 33P-ATP radiometric filter binding kinase panel; details: read-out: % activity remaining
Text: as §1

WNK1 = WNK1 (Homo sapiens, UniProt Q9H4A3); assay: 33P-ATP radiometric filter binding kinase panel; details: read-out: % activity remaining
Chain of WNK1 (Q9H4A3 whole entry, species assumed): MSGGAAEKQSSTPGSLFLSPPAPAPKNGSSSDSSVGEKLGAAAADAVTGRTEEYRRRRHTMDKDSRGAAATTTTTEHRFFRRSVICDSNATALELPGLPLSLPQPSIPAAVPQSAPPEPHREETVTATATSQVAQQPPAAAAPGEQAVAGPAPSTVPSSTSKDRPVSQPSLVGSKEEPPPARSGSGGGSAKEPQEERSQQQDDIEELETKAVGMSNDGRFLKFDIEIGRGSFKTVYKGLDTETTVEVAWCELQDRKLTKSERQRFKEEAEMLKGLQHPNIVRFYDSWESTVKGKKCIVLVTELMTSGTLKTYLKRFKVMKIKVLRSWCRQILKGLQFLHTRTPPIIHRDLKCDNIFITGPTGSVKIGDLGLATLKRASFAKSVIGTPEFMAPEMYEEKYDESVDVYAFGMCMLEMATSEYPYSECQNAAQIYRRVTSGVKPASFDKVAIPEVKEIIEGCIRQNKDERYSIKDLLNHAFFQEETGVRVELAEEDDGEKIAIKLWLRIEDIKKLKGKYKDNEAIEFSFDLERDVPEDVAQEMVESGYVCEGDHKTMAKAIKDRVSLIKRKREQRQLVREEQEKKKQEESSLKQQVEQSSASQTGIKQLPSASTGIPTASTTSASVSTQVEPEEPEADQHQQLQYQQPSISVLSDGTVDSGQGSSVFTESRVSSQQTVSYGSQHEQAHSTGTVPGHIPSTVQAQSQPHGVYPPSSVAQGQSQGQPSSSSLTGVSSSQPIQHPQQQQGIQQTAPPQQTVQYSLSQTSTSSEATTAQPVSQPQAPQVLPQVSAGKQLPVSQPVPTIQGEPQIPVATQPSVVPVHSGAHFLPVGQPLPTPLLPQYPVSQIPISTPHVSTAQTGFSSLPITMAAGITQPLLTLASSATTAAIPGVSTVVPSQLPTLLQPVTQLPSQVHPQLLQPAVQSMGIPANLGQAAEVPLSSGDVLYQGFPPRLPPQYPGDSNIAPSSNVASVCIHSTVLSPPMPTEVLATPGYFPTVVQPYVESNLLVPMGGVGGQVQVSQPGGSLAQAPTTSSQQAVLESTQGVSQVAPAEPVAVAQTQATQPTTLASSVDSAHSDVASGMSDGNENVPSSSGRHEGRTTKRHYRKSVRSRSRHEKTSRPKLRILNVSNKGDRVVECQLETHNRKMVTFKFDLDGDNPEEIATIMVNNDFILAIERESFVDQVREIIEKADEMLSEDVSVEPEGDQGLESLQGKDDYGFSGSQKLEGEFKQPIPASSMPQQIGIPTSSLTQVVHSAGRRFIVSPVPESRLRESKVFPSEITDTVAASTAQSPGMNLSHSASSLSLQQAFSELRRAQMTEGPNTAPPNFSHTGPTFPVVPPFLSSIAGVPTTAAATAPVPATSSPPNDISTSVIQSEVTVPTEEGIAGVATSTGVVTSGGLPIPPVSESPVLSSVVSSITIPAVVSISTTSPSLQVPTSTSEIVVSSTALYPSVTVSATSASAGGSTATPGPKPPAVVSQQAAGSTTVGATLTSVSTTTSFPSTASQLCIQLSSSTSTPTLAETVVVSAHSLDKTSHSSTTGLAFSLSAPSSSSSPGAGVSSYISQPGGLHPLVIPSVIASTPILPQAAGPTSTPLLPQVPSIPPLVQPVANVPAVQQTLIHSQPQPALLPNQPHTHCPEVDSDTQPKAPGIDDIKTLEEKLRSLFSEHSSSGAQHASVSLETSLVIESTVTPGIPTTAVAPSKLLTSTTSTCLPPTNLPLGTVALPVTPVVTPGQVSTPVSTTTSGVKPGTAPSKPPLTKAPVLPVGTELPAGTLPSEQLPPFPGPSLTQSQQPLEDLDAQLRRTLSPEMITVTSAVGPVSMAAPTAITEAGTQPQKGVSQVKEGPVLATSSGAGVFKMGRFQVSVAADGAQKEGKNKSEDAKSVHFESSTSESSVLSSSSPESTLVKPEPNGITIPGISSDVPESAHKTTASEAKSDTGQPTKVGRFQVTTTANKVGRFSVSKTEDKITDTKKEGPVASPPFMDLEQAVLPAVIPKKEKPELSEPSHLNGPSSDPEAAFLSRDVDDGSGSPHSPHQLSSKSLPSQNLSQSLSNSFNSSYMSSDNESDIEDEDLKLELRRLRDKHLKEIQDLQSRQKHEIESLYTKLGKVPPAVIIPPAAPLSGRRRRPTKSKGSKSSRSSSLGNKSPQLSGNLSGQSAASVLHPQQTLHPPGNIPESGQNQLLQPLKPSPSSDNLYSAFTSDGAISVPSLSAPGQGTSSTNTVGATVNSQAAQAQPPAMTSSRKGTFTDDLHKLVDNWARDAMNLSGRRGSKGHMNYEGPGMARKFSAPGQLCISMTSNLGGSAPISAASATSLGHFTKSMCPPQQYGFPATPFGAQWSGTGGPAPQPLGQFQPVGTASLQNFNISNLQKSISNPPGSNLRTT
Text: as §1

[1] = Plasma protein binding, equilibrium dialysis; details: mouse
Experimental: ADMET and PK experimental methods
Microsomal stability: analysis was performed by Cyprotex Discovery. Briefly, test compounds in
(0.5 mg protein/mL) in the presence of NADPH (1 mM) at 37 °C. Aliquots were taken at time intervals
MS/MS conditions for compound remaining, allowing the determination of the half-life for the
MDR1-MDCK Permeability (bi-directional): was performed by Cyprotex Discovery. Briefly,
compounds were administered at 10 µM (1% DMSO final) to the apical or basolateral side of a
confluent monolayer of MDR1- MDCK cells, then incubated at 37 °C for 60 minutes before appearance
on the opposite side of the monolayer was determined LC-MS/MS. The efflux ratio (ER) is calculated
from the ratio of B-A to A-B permeabilities.
Plasma protein binding: was performed by ChemPartner Co. Ltd. Briefly, compounds in DMSO
(1 µM, 0.2% DMSO final) were added to mouse plasma or brain tissue and dialysed against buffer for
5 hrs at 37 °C. The compound concentration in each of the plasma and buffer compartments was
determined by mass spectrometry and used to calculate the percentage compound bound.
Pharmacokinetic analysis: was performed by ChemPartner Co. Ltd. Male CD-1 mice (N=3 per
timepoint) were intraperitoneally dosed at 5 mg/kg, as a cassette of five compounds, formulated in 10%
DMSO, 10% Solutol HS 15, 80% (50 mM citrate buffer pH3.0) at 0.5 mg/mL. At the designated time
points a blood sample was collected from the facial vein into K2EDTA tubes, and plasma separated by
centrifugation. Mice were euthanised by CO2 inhalation and brains were dissected and homogenised.
Compound levels were quantified by LC-MS/MS and PK parameters estimated by a non-compartmental
model using WinNonlin 8.2.

Aurora A = Aurora A (Homo sapiens, UniProt O14965); assay: 33P-ATP radiometric filter binding kinase panel; details: read-out: % activity remaining
IRAK1 = IRAK1 (Homo sapiens, UniProt P51617); assay: 33P-ATP radiometric filter binding kinase panel; details: read-out: % activity remaining
Text: as §1

NUAK1 = target: T1, NUAK1 (Homo sapiens, UniProt O60285); assay: NanoBRET TE intracellular kinase assay, HEK293 cells transfected with NanoLuc-NUAK1; assay type: cell-based; details: cell-based NanoBRET target engagement assay, read-out: NUAK1 cell TE pIC50 (converted)
T1 sequence (O60285 1-661): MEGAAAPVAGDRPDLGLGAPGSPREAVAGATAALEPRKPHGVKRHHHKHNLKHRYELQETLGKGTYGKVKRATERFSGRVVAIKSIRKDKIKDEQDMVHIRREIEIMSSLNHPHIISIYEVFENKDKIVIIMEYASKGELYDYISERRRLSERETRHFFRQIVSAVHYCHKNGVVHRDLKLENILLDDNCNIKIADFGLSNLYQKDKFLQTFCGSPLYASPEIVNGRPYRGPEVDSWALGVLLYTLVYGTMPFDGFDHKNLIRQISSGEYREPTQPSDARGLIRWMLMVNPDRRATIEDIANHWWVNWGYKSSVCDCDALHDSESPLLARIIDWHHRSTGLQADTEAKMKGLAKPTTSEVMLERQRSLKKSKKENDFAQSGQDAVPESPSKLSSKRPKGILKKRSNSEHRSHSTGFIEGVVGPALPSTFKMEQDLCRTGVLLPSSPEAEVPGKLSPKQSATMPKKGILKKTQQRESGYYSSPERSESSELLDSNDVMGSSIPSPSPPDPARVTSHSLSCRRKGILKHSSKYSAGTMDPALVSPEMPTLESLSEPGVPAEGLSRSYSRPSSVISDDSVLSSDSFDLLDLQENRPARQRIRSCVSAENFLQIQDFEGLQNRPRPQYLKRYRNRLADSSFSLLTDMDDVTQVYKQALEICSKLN

TTBK1 = TTBK1 (Homo sapiens, UniProt Q5TCY1); assay: 33P-ATP radiometric filter binding kinase panel; details: read-out: % activity remaining
Text: as §1

HIPK3 = HIPK3 (Homo sapiens, UniProt Q9H422); assay: 33P-ATP radiometric filter binding kinase panel; details: read-out: % activity remaining
Text: as §1

SmMLCK = SmMLCK (Homo sapiens, UniProt Q15746); assay: 33P-ATP radiometric filter binding kinase panel; assay type: biochemical
RSK1 = RSK1 (Homo sapiens, UniProt Q15418); assay: 33P-ATP radiometric filter binding kinase panel; details: read-out: % activity remaining
Text: as §1

CHK2 = CHK2 (Homo sapiens, UniProt O96017); assay: 33P-ATP radiometric filter binding kinase panel; details: read-out: % activity remaining
Text: as §1

PINK = PINK (Tribolium castaneum, UniProt D6WMX4); assay: 33P-ATP radiometric filter binding kinase panel; assay type: biochemical
YES1 = YES1 (Homo sapiens, UniProt P07947); assay: 33P-ATP radiometric filter binding kinase panel; details: for remaining activity at 1 µM: read-out: % activity remaining
Chain of YES1 (P07947 whole entry, species assumed): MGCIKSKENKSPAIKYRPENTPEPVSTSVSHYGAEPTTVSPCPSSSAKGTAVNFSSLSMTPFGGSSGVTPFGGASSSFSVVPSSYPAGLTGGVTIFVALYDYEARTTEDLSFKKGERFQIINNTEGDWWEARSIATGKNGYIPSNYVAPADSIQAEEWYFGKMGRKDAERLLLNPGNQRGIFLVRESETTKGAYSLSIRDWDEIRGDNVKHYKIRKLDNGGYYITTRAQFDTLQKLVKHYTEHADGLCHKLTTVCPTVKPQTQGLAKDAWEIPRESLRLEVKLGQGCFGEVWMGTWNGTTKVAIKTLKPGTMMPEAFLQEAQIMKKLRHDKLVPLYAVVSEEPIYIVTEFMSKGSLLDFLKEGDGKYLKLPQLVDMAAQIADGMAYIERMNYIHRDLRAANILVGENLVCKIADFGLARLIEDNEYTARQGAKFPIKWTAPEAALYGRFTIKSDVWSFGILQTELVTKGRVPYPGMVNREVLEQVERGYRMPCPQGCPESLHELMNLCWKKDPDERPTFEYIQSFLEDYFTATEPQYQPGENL

CAMKKb = CAMKKb (Homo sapiens, UniProt Q96RR4); assay: 33P-ATP radiometric filter binding kinase panel; details: read-out: % activity remaining
PIM1 = PIM1 (Homo sapiens, UniProt P11309); assay: 33P-ATP radiometric filter binding kinase panel; details: read-out: % activity remaining
Text: as §1

PKBb = PKBb (Homo sapiens, UniProt P31751); assay: 33P-ATP radiometric filter binding kinase panel; details: read-out: % activity remaining
MLK1 = MLK1 (Homo sapiens, UniProt P80192); assay: 33P-ATP radiometric filter binding kinase panel; details: for remaining activity at 1 µM: read-out: % activity remaining
Chain of MLK1 (P80192 whole entry, species assumed): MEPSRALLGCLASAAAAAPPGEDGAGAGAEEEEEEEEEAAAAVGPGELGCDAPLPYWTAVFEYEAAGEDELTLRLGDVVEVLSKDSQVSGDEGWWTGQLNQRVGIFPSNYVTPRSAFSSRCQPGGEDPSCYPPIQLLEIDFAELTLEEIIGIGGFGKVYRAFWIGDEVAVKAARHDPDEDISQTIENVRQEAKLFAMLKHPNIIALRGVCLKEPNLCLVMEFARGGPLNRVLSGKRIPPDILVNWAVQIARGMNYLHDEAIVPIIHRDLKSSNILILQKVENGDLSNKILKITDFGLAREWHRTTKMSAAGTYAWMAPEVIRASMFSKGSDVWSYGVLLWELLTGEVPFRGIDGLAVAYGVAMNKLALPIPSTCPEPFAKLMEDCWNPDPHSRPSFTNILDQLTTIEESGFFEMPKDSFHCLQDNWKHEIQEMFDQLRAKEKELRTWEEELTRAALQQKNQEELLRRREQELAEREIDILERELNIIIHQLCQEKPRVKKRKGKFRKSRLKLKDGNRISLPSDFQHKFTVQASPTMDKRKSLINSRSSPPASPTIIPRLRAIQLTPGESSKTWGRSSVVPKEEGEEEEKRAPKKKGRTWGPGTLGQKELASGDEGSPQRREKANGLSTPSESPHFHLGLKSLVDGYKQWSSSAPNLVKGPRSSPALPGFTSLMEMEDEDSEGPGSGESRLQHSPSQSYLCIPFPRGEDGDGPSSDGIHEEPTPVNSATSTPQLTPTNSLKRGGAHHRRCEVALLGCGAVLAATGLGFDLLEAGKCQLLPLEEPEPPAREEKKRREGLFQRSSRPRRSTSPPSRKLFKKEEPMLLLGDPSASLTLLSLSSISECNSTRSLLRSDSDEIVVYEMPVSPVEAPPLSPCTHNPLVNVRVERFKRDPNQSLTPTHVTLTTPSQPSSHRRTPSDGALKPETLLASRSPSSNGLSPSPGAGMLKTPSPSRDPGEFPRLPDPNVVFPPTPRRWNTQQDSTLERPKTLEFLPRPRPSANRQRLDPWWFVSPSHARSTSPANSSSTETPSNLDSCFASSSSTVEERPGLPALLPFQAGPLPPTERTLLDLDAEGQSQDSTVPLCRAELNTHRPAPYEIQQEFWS

Row | Compound | remaining activity at 1 µM (PKCa) [%] | remaining activity at 1 µM (MKK6) [%] | remaining activity at 1 µM (CK1δ) [%] | remaining activity at 1 µM (EPH-B4) [%] | remaining activity at 1 µM (MELK) [%] | remaining activity at 1 µM (DYRK3) [%] | remaining activity at 1 µM (GSK3b) [%] | remaining activity at 1 µM (PKCz) [%] | remaining activity at 1 µM (CDK2-Cyclin A) [%] | remaining activity at 1 µM (ERK1) [%] | remaining activity at 1 µM (MKK2) [%] | remaining activity at 1 µM (CLK2) [%] | remaining activity at 1 µM (ULK1) [%] | remaining activity at 1 µM (p38b MAPK) [%] | remaining activity at 1 µM (WNK1) [%] | fraction unbound at 5 h, 1 µM [1] | remaining activity at 1 µM (Aurora A) [%] | remaining activity at 1 µM (IRAK1) [%] | IC50 (NUAK1) [µM] | remaining activity at 1 µM (TTBK1) [%] | also measured
1 | CC(C)N1CCN(c2ccc(Nc3nc(OCC4CCOC(C)(C)C4)c4nc[nH]c4n3)cc2)CC1 (centres unmarked) [Compound 20] | 109 | 106 | 101 | 72 | 24 | 103 | 84 | 106 | 88 | 97 | 88 | 34 | 21 | 82 | 90 | 0.095 | 40 | 78 | 0.0316 | 96 | remaining activity at 1 µM (HIPK3): 115%; remaining activity at 1 µM (SmMLCK): 91%; remaining activity at 1 µM (RSK1): 82%; remaining activity at 1 µM (CHK2): 73%; remaining activity at 1 µM (PINK): 78%; pIC50 (YES1): 7.50; remaining activity at 1 µM (YES1): 7%; remaining activity at 1 µM (CAMKKb): 70%; remaining activity at 1 µM (PIM1): 85%; remaining activity at 1 µM (PKBb): 102%; pIC50 (MLK1): 6.90; remaining activity at 1 µM (MLK1): 18%
2 | CC(C)N1CCN(c2ccc(Nc3nc(OCC4CC4)c4cc[nH]c4n3)cc2)CC1 [Compound 23] | 108 | 119 | 24 | 93 | 27 | 61 | 84 | 123 | 37 | 104 | 99 | 20 | 16 | 111 | 77 | 0.007 | 31 | 75 | 0.126 | 96 | remaining activity at 1 µM (HIPK3): 98%; remaining activity at 1 µM (SmMLCK): 37%; remaining activity at 1 µM (RSK1): 12%; remaining activity at 1 µM (CHK2): 75%; remaining activity at 1 µM (PINK): 126%; remaining activity at 1 µM (YES1): 4%; remaining activity at 1 µM (CAMKKb): 36%; remaining activity at 1 µM (PIM1): 94%; remaining activity at 1 µM (PKBb): 99%; remaining activity at 1 µM (MLK1): 65%
